These are literature values, as cited in publication PMC11187573, “Identification of SARS-CoV-2 Mpro inhibitors through deep reinforcement learning for de novo drug design and computational chemistry approaches” (RSC Medicinal Chemistry, 2024).

For this series, the system named is Mpro. The note with it: ML dataset, Origin COVID_Moonshot; ref COVID Moonshot; cited from earlier work.

By IC50 is commonly meant the concentration needed to halve the response being measured. Take `CS(=O)(=O)c1ccc(N2CCNCC2)cc1`: the IC50 is 91.6 µM.

In the case of `O=C(Cc1cccc(Cl)c1)Nc1cnccc1-c1ccccc1`, the IC50 is 33 µM.

In the case of `Cc1ccncc1NC(=O)Cc1cccc(F)c1`, the half-inhibitory concentration (IC50) was 95.8 µM.

Take `Nc1cncc2c1CCCN2C(=O)Cc1cccc(Cl)c1`: the IC50 is 43.4 µM.

Turning to `Cc1ccncc1NC(=O)CN1C(=O)COc2ccc(Cl)cc21`, the IC50 is 49.4 µM.

In the case of `O=C(c1cc(=O)[nH]c2ccccc12)N1CCN(c2ccccc2F)CC1`, the IC50 was 24 µM.

Take `O=C(Nc1cncc2c1CNCC2)C1CCOc2ccc(Cl)cc21` (centres unmarked): the IC50 is 6.16 µM.

Take `Cc1ccncc1NC(=O)C1CCOc2ccc(Cl)cc21` (centres unmarked): the IC50 was 16 µM.

With `CCCCOc1ccc(Cl)cc1CC(=O)Nc1cnccc1C`, the IC50 was 20.2 µM.

Turning to `Cn1c(=O)[nH]c2cncc(NC(=O)C3CCOc4ccc(Cl)cc43)c21` (centres unmarked), the IC50 was 20.7 µM.

Turning to `Cc1ccncc1NC(=O)CN1CCC(C)CC1`, the IC50 was 49.2 µM.

Turning to `Cc1ccncc1CC(=O)Nc1cccc(Cl)c1`, the IC50 is 28.1 µM.

As to `COc1ccccc1OCCNC(=O)c1cc(=O)[nH]c2cccc(C)c12`, the IC50 is 6.61 µM.

Take `O=C(c1cc(=O)[nH]c2ccccc12)N1CCN(c2cccc(Cl)c2)C(=O)C1`: the IC50 was 12.7 µM.

Take `Cc1ccncc1N1CCN(c2cccc(Cl)c2)C1=O`: the IC50 is 90.3 µM.

For the compound `O=C(Cc1cccc(Cl)c1)Nn1cnc2ccccc21`, the IC50 is 6.28 µM.

In the case of `Cc1ccncc1NC(=O)Cc1cccc(Br)c1`, the 50% inhibitory concentration (IC50) is 18.3 µM.

Turning to `CCCC(C(=O)Nc1cnccc1C)c1cccc(Cl)c1` (centres unmarked), the IC50 was 11.4 µM.

With `O=C(Nc1cccnc1)N(CCC1CCCCC1)c1cccc(Cl)c1`, the IC50 was 3.18 µM.

`Cc1ccncc1NC(=O)Cc1cc(Cl)cc(NC2CCCC2O)c1` (centres unmarked): the IC50 was 29.3 µM.

As for `Cc1ccncc1NC(=O)Cc1cc(Cl)cc(NC2CC2C(F)(F)F)c1` (centres unmarked), the IC50 is 22.5 µM.

Consider `O=C(Cc1cccc(Cl)c1)Nc1cncc2c1CCC2`, for which the IC50 is 4.91 µM.

As to `Cc1ccncc1NC(=O)CC(C)C(C)C` (centres unmarked), the IC50 was 99 µM.

With `COc1ccccc1OCCNC(=O)c1cc(=O)[nH]c2ccccc12`, the IC50 is 5.35 µM.

`O=C(Cc1cc(Cl)cc2c1OCC2)Nc1cncc2ccccc12`: the IC50 was 0.97 µM.

For the compound `O=C(Cc1cccc(Cl)c1)Nn1nnc2ccccc21`, the IC50 is 18.4 µM.

In the case of `COc1cc(Cl)cc(CC(=O)Nc2cnccc2C)c1`, the IC50 was 40.2 µM.

Turning to `Cc1ccncc1NC(=O)Cc1cc(Cl)cc(-c2ccc(C)c(F)c2F)c1`, the 50% inhibitory concentration (IC50) was 44.1 µM.

With `O=C(Cc1cccc(Cl)c1)Nc1cncc2nc[nH]c12`, the IC50 is 10.6 µM.

In the case of `O=C(Cc1cccc(Cl)c1)Nc1cnc2ccccn12`, the IC50 is 8.03 µM.

Consider `Cn1cncc1NC(=O)Cc1cccc(Cl)c1`, for which the IC50 is 96.4 µM.

In the case of `O=C(Cc1cncnc1)Nc1cc(F)cc(OC2CC(=O)N2)c1` (centres unmarked), the half-inhibitory concentration (IC50) is 24.9 µM.

For the compound `O=C(Cc1cccnc1)Nc1cccc(OC2CC(=O)N2)c1` (centres unmarked), the IC50 was 88.3 µM.

Take `Cc1cc(NC(=O)Cc2cncnc2)cc(OC2CC(=O)N2)c1` (centres unmarked): the IC50 was 34.3 µM.

For the compound `CC(=O)NCc1cc(Cl)cc(CC(=O)Nc2cnccc2C)c1`, the IC50 is 48.4 µM.

On to `Cc1ccncc1NC(=O)Cc1cc(Cl)cc(OC2CC(=O)N2)c1` (centres unmarked), for which the concentration for half-maximal inhibition (IC50) is 2.28 µM.

In the case of `Cc1ccncc1NC(=O)C(C)c1cc(Cl)cc(OC2CC(=O)N2)c1` (centres unmarked), the IC50 is 82.6 µM.

Regarding `Cc1ccncc1NC(=O)Nc1cccc(Cl)c1`, the IC50 was 55.1 µM.

Regarding `Cc1ccncc1NC(=O)C(C)c1cccc(Cl)c1` (centres unmarked), the IC50 is 19.6 µM.

For the compound `Cc1c(N)cncc1NC(=O)Cc1cccc(C#N)c1`, the IC50 was 24.1 µM.

Take `Cc1ccncc1NC(=O)Cc1cccc(C#N)c1`: the IC50 is 52.6 µM.

With `Cc1ccncc1NC(=O)C(C)c1cccc(C#N)c1` (centres unmarked), the IC50 is 50.1 µM.

Consider `Cc1c(N)cncc1NC(=O)Cc1cccc(Cl)c1`, for which the IC50 was 6.21 µM.

With `Cc1ccncc1NC(=O)Cc1cccc(Cl)c1`, the IC50 is 19.2 µM.

Turning to `O=C(Nc1cncc2ccccc12)C1COc2ccc(Cl)cc21` (racemic), the IC50 was 1.86 µM.

For the compound `CN(C(=O)Cn1nnc2ccccc21)c1ccc(Oc2ccc(C(F)(F)F)cn2)cc1` [AAR-POS-8a4e0f60-7], the IC50 is 37.8 µM.

In the case of `COc1cc(Cl)cc(OC(=O)Nc2cccnc2)c1` [AGN-NEW-891393a6-1], the half-maximal inhibitory concentration (IC50) was 4.1 µM.

On to `CC(C)(C)c1ccc(N(C(=O)c2ccco2)C(C(=O)N2CCOCC2)c2cccnc2)cc1` (centres unmarked) [ALP-POS-0c0a3b93-1], for which the IC50 was 41 µM.

As for `CC(C)(C)c1ccc(N(C(=O)C2CCCO2)C(C(=O)NCCc2cccc(F)c2)c2cccnc2)cc1` (centres unmarked) [ALP-POS-02c6a514-17], the IC50 was 5.56 µM.

On to `Cc1ccncc1C(C(=O)NCCc1cccc(F)c1)N(C(=O)c1ccco1)c1ccc(C(C)(C)C)cc1` (centres unmarked) [ALP-POS-02c6a514-44], for which the IC50 is 0.112 µM.

Take `CC(C)(C)c1ccc(N(C(=O)c2ncc[nH]2)C(C(=O)NCCc2cccc(F)c2)c2cccnc2)cc1` (centres unmarked) [ALP-POS-02c6a514-46]: the half-inhibitory concentration (IC50) was 5.29 µM.

Regarding `CC(C)(C)c1ccc(N(C(=O)c2nccs2)C(C(=O)NCCc2cccc(F)c2)c2cccnc2)cc1` (centres unmarked) [ALP-POS-02c6a514-49], the IC50 was 0.8 µM.

With `CC(C)(C)c1ccc(N(C(=O)c2cocn2)C(C(=O)NCCc2cccc(F)c2)c2cccnc2)cc1` (centres unmarked) [ALP-POS-02c6a514-50], the IC50 is 0.557 µM.

As to `CC(C)(C)c1ccc(N(C(=O)c2ccn[nH]2)C(C(=O)NCCc2cccc(F)c2)c2cccnc2)cc1` (centres unmarked) [ALP-POS-02c6a514-52], the IC50 is 1.78 µM.

On to `CC(C)(C)c1ccc(N(C(=O)c2ccco2)C(C(=O)NCCN2CCOCC2)c2cccnc2)cc1` (centres unmarked) [ALP-POS-02c6a514-55], for which the IC50 was 2.19 µM.

As to `CC(C)(C)c1ccc(N(C(=O)c2ccco2)C(C(=O)Nc2ccccc2)c2cccnc2)cc1` (centres unmarked) [ALP-POS-02c6a514-56], the half-maximal inhibitory concentration (IC50) was 11.2 µM.

Turning to `CC(C)(C)c1ccc(N(C(=O)c2ccco2)C(C(=O)NCc2ccccc2)c2cccnc2)cc1` (centres unmarked) [ALP-POS-02c6a514-57], the IC50 was 4.36 µM.

With `O=C(C[C@@]1(C(=O)Nc2cncc3ccccc23)CCOc2ccc(Cl)cc21)N1CCN(C2CCOC2)CC1` (some centres unmarked) [ALP-POS-2da19ca7-2], the IC50 is 46.5 µM.

On to `O=C(Cc1cc(Cl)cc(OC2CC(=O)N2)c1)Nc1cncc2ccccc12` (centres unmarked) [ALP-POS-3b848b35-2, O=C(Cc1cc(Cl)cc(OC2CC(=O)N2)c1)Nc1cncc2ccccc12, reference compound], for which the 50% inhibitory concentration (IC50) is 0.18 µM.

Regarding `COc1c(Cl)cccc1OCCNC(=O)c1cc(=O)[nH]c2ccccc12` [ALP-POS-3fc1724e-1], the IC50 is 11.5 µM.

For the compound `O=C(CC1(C(=O)Nc2cncc3ccccc23)CCOc2ccc(Cl)cc21)N1CCN(C2CCOC2)CC1` (centres unmarked) [ALP-POS-5bb456a5-7], the IC50 is 6.68 µM.

Consider `O=C(C[C@]1(C(=O)Nc2cncc3ccccc23)CCOc2ccc(Cl)cc21)N1CCN(C2CCOC2)CC1` (some centres unmarked) [ALP-POS-5bb456a5-8], for which the IC50 is 1.99 µM.

Regarding `CN(C)c1ccc(N(Cc2ccccc2)C(=O)Cn2nnc3ccccc32)cc1` [ALP-POS-6d04362c-1], the IC50 was 3.31 µM.

Turning to `O=C(Cn1nnc2ccccc21)N(Cc1ccsc1)c1ccc(N2CCOCC2)cc1` [ALP-POS-6d04362c-4], the 50% inhibitory concentration (IC50) was 16.5 µM.

For `CN(C)c1ccc(N(Cc2cscn2)C(=O)Cn2nnc3ccccc32)cc1` [ALP-POS-87c86d55-1], the IC50 was 9.57 µM.

For `CCC(=O)Nc1ccc(N(Cc2cscn2)C(=O)Cn2nnc3ccccc32)cc1` [ALP-POS-87c86d55-2], the IC50 is 35.5 µM.

On to `CC(C)(C)c1ccc(N(C(=O)c2cocn2)C(C(=O)NCc2cccnc2)c2cccnc2)cc1` (centres unmarked) [ALP-POS-88a7a97e-4], for which the half-inhibitory concentration (IC50) is 25.3 µM.

On to `COC(=O)C(C)NC(=O)C(c1cccnc1)N(C(=O)c1cocn1)c1ccc(C(C)(C)C)cc1` (centres unmarked) [ALP-POS-88a7a97e-5], for which the IC50 was 7.18 µM.

On to `COC(=O)[C@@H]1CC[C@H](NC(=O)C(c2cccnc2)N(C(=O)c2cocn2)c2ccc(C(C)(C)C)cc2)C1` (some centres unmarked) [ALP-POS-88a7a97e-6], for which the IC50 was 2.38 µM.

Turning to `CC(C)(C)c1ccc(N(C(=O)c2cocn2)C(C(=O)NC2CCOCC2)c2cccnc2)cc1` (centres unmarked) [ALP-POS-88a7a97e-9], the IC50 was 3.9 µM.

Turning to `COC(=O)C1CC(NC(=O)C(c2cccnc2)N(C(=O)c2cocn2)c2ccc(C(C)(C)C)cc2)C1` (centres unmarked) [ALP-POS-88a7a97e-15], the IC50 is 3.99 µM.

Take `CC(C)(C)c1ccc(N(C(=O)c2cocn2)C(C(=O)NCC2CCOC2)c2cccnc2)cc1` (centres unmarked) [ALP-POS-88a7a97e-26]: the IC50 is 5.42 µM.

Consider `CC(C)(C)c1ccc(N(C(=O)c2cocn2)C(C(=O)NCC2CCCO2)c2cccnc2)cc1` (centres unmarked) [ALP-POS-88a7a97e-27], for which the IC50 is 5.15 µM.

For `CC(C)(C)c1ccc(N(C(=O)c2cocn2)C(C(=O)NC2CCOC2)c2cccnc2)cc1` (centres unmarked) [ALP-POS-88a7a97e-30], the IC50 was 2.77 µM.

`COCCNC(=O)C(c1cccnc1)N(C(=O)c1cocn1)c1ccc(C(C)(C)C)cc1` (centres unmarked) [ALP-POS-88a7a97e-31]: the IC50 was 8.46 µM.

For `COC(=O)CNC(=O)C(c1cccnc1)N(C(=O)c1cocn1)c1ccc(C(C)(C)C)cc1` (centres unmarked) [ALP-POS-88a7a97e-33], the IC50 was 10.8 µM.

With `CC(C)(C)c1ccc(N(C(=O)c2cocn2)C(C(=O)NC2COC2)c2cccnc2)cc1` (centres unmarked) [ALP-POS-88a7a97e-34], the IC50 is 4.07 µM.

`COC(=O)C1(NC(=O)C(c2cccnc2)N(C(=O)c2cocn2)c2ccc(C(C)(C)C)cc2)CCCC1` (centres unmarked) [ALP-POS-88a7a97e-36]: the IC50 was 5.26 µM.

For `CC(C)(C)c1ccc(N(C(=O)c2cocn2)C(C(=O)NC2CC(F)(F)C2)c2cccnc2)cc1` (centres unmarked) [ALP-POS-88a7a97e-39], the concentration for half-maximal inhibition (IC50) is 2.35 µM.

For `COc1ccc(NC(=O)C(c2cccnc2)N(C(=O)c2cocn2)c2ccc(C(C)(C)C)cc2)cn1` (centres unmarked) [ALP-POS-88a7a97e-41], the IC50 was 5.37 µM.

For the compound `Cc1ccc(S(=O)(=O)CNC(=O)C(c2cccnc2)N(C(=O)c2cocn2)c2ccc(C(C)(C)C)cc2)cc1` (centres unmarked) [ALP-POS-88a7a97e-42], the IC50 is 62.9 µM.

As to `CC(C)(C)c1ccc(N(C(=O)c2cocn2)C(C(=O)NCC(=O)OCc2ccccc2)c2cccnc2)cc1` (centres unmarked) [ALP-POS-88a7a97e-44], the IC50 was 9.92 µM.

In the case of `CC(C)(C)c1ccc(N(C(=O)c2cocn2)C(C(=O)NCCN2CCOCC2)c2cccnc2)cc1` (centres unmarked) [ALP-POS-88a7a97e-47], the IC50 was 82.5 µM.
